Experimental data from patent US8653263B2 (Janssen Pharmaceutica, priority 2009, dated 2014).

molecular target: human orexin-2 receptor (Homo sapiens (Human), UniProt O43614); assay: Human orexin 2 receptor radioligand binding ([3H]-EMPA competition); settings: HEK293 cells stably expressing human orexin-2 receptor; [3H]-EMPA 5 nM final; apparent Ki=IC50/(1+C/Kd), Kd=2 nM; read-out: OR 2 Ki
Sequence (O43614 whole entry): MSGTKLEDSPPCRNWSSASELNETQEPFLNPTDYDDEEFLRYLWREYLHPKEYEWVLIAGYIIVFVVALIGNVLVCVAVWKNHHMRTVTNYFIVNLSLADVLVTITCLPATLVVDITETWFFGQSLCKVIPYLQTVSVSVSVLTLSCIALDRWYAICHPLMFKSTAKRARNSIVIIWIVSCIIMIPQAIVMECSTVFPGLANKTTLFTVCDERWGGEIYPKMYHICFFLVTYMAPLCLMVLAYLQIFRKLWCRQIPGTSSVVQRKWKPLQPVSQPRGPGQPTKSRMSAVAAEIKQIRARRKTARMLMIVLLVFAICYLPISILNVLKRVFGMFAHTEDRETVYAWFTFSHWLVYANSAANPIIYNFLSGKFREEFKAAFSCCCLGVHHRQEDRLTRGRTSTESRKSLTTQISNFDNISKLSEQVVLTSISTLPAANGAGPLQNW

Question: How did the Ki turn out when `O=C(c1ccccc1Br)N1CC2CN(c3cnc4ccccc4n3)CC2C1` (centres unmarked) [Example 42, 2-{5-[(2-Bromophenyl)carbonyl]hexahydropyrrolo[3,4-c]pyrrol-2(1H)-yl}quinoxaline] was run?
Answer: 616 nM

Question: How did the Ki turn out when `Cc1cc(C)nc(N2CC3CN(C(=O)c4ccccc4-c4cccs4)CC3C2)n1` (centres unmarked) [Example 43, 2-(4,6-Dimethylpyrimidin-2-yl)-5-[(2-thiophen-2-ylphenyl)carbonyl]octahydro-pyrrolo[3,4-c]pyrrole] was run?
Answer: 7 nM

Question: For `Cc1cc(C)nc(N2CC3CN(C(=O)c4ccccc4-c4ccccc4)CC3C2)n1` (centres unmarked) [Example 44, 2-(Biphenyl-2-ylcarbonyl)-5-(4,6-dimethylpyrimidin-2-yl)octahydropyrrolo[3,4-c]pyrrole], which Ki is on record?
Answer: 142 nM

Question: For `COc1ccnc(N2CC3CN(C(=O)c4ccccc4-c4cccs4)CC3C2)n1` (centres unmarked) [Example 45, 2-(4-Methoxypyrimidin-2-yl)-5-[(2-thiophen-2-ylphenyl)carbonyl]octahydro-pyrrolo[3,4-c]pyrrole], which Ki is on record?
Answer: 36 nM

Question: With `O=C(c1ccccc1-c1cccs1)N1CC2CN(c3nc4ccc(F)cc4s3)CC2C1` (centres unmarked) [Example 46, 6-Fluoro-2-{5-[(2-thiophen-2-ylphenyl)carbonyl]hexahydropyrrolo[3,4-c]pyrrol-2(1H)-yl}-1,3-benzothiazole] as the compound, how does the Ki read?
Answer: 132 nM

Question: For `Cc1cc(C)nc(N2CC3CN(C(=O)c4c(C)ccc5ccccc45)CC3C2)n1` (centres unmarked) [Example 47, 2-(4,6-Dimethylpyrimidin-2-yl)-5-[(2-methylnaphthalen-1-yl)carbonyl]octahydro-pyrrolo[3,4-c]pyrrole], which Ki is on record?
Answer: 38 nM

Question: How did the Ki turn out when `Cc1ccnc(N2CC3CN(C(=O)c4ccccc4-c4cccc(F)c4)CC3C2)n1` (centres unmarked) [Example 48, 2-[(3′-Fluorobiphenyl-2-yl)carbonyl]-5-(4-methylpyrimidin-2-yl)octahydro-pyrrolo[3,4-c]pyrrole] was run?
Answer: 716 nM

Question: With `COc1ccnc(N2CC3CN(C(=O)c4c(C)ccc5ccccc45)CC3C2)n1` (centres unmarked) [Example 49, 2-(4-Methoxypyrimidin-2-yl)-5-[(2-methylnaphthalen-1-yl)carbonyl]octahydro-pyrrolo[3,4-c]pyrrole] as the compound, how does the Ki read?
Answer: 78 nM

Question: With `Cc1ccnc(N2CC3CN(C(=O)c4c(C)ccc5ccccc45)CC3C2)n1` (centres unmarked) [Example 50, 2-[(2-Methylnaphthalen-1-yl)carbonyl]-5-(4-methylpyrimidin-2-yl)octahydro-pyrrolo[3,4-c]pyrrole] as the compound, how does the Ki read?
Answer: 215 nM

Question: `COc1ccnc(N2CC3CN(C(=O)c4ccccc4-c4cccc(F)c4)CC3C2)n1` (centres unmarked) [Example 51, 2-[(3′-Fluorobiphenyl-2-yl)carbonyl]-5-(4-methoxypyrimidin-2-yl)octahydro-pyrrolo[3,4-c]pyrrole] was tested. Which Ki did it give?
Answer: 644 nM

Question: For `Cc1cc(C)nc(N2CC3CN(C(=O)c4ccccc4-c4cccc(F)c4)CC3C2)n1` (centres unmarked) [Example 52, 2-(4,6-Dimethylpyrimidin-2-yl)-5-[(3′-fluorobiphenyl-2-yl)carbonyl]octahydro-pyrrolo[3,4-c]pyrrole], which Ki is on record?
Answer: 65 nM

Question: Which Ki does the source give for `Cc1cc(C)nc(N2CC3CN(C(=O)c4ccccc4F)CC3C2)n1` (centres unmarked) [Example 53, [5-(4,6-Dimethyl-pyrimidin-2-yl)-hexahydro-pyrrolo[3,4-c]pyrrol-2-yl]-(2-fluoro-phenyl)-methanone] here?
Answer: 5000 nM

Question: How did the Ki turn out when `COc1ccnc(N2CC3CN(C(=O)c4ccccc4-c4ccc(C)cc4)CC3C2)n1` (centres unmarked) [Example 54, 2-(4-Methoxypyrimidin-2-yl)-5-[(4′-methylbiphenyl-2-yl)carbonyl]octahydro-pyrrolo[3,4-c]pyrrole] was run?
Answer: 769 nM

Question: For `COc1ccnc(N2CC3CN(C(=O)c4ccccc4-c4cccc(Cl)c4)CC3C2)n1` (centres unmarked) [Example 55, 2-[(3′-Chlorobiphenyl-2-yl)carbonyl]-5-(4-methoxypyrimidin-2-yl)octahydro-pyrrolo[3,4-c]pyrrole], which Ki is on record?
Answer: 744 nM

Question: For `CCOc1ccc2ccccc2c1C(=O)N1CC2CN(c3nccc(OC)n3)CC2C1` (centres unmarked) [Example 56, 2-[(2-Ethoxynaphthalen-1-yl)carbonyl]-5-(4-methoxypyrimidin-2-yl)octahydropyrrolo[3,4-c]pyrrole], which Ki is on record?
Answer: 80 nM

Question: Which Ki does the source give for `COc1ccnc(N2CC3CN(C(=O)c4ccc(F)c5ccccc45)CC3C2)n1` (centres unmarked) [Example 57, 2-[(4-Fluoronaphthalen-1-yl)carbonyl]-5-(4-methoxypyrimidin-2-yl)octahydro-pyrrolo[3,4-c]pyrrole] here?
Answer: 167 nM

Question: How did the Ki turn out when `COc1ccnc(N2CC3CN(C(=O)c4cccc5ccccc45)CC3C2)n1` (centres unmarked) [Example 58, 2-(4-Methoxypyrimidin-2-yl)-5-(naphthalen-1-ylcarbonyl)octahydropyrrolo[3,4-c]pyrrole] was run?
Answer: 227 nM

Question: For `CCOc1ccccc1C(=O)N1CC2CN(c3nccc(OC)n3)CC2C1` (centres unmarked) [Example 59, 2-[(2-Ethoxyphenyl)carbonyl]-5-(4-methoxypyrimidin-2-yl)octahydropyrrolo[3,4-c]pyrrole], which Ki is on record?
Answer: 778 nM

Question: `COc1ccnc(N2CC3CN(C(=O)c4c(OC)ccc5ccccc45)CC3C2)n1` (centres unmarked) [Example 60, 2-[(2-Methoxynaphthalen-1-yl)carbonyl]-5-(4-methoxypyrimidin-2-yl)octahydropyrrolo[3,4-c]pyrrole] was tested. Which Ki did it give?
Answer: 173 nM

Question: `O=C(c1ccccc1-c1ccccc1)N1CC2CN(c3nccc(-c4cn[nH]c4)n3)CC2C1` (centres unmarked) [Example 61, 2-(Biphenyl-2-ylcarbonyl)-5-[4-(1H-pyrazol-4-yl)pyrimidin-2-yl]octahydro-pyrrolo[3,4-c]pyrrole] was tested. Which Ki did it give?
Answer: 224 nM

Question: How did the Ki turn out when `O=C(c1ccccc1-c1cccs1)N1CC2CN(c3nccc(-c4cn[nH]c4)n3)CC2C1` (centres unmarked) [Example 62, 2-[4-(1H-Pyrazol-4-yl)pyrimidin-2-yl]-5-[(2-thiophen-2-ylphenyl)carbonyl]octahydro-pyrrolo[3,4-c]pyrrole] was run?
Answer: 42 nM

Question: With `Cc1cnc(C)c(N2CC3CN(C(=O)c4ccccc4-c4cccs4)CC3C2)n1` (centres unmarked) [Example 63, 2-(3,6-Dimethylpyrazin-2-yl)-5-[(2-thiophen-2-ylphenyl)carbonyl]octahydro-pyrrolo[3,4-c]pyrrole] as the compound, how does the Ki read?
Answer: 44 nM

Question: For `Cc1cnc(N2CC3CN(C(=O)c4ccccc4-c4ccccc4)CC3C2)c(C)n1` (centres unmarked) [Example 64, 2-(Biphenyl-2-ylcarbonyl)-5-(3,5-dimethylpyrazin-2-yl)octahydropyrrolo[3,4-c]pyrrole], which Ki is on record?
Answer: 579 nM

Question: `Cc1nc2ccccc2nc1N1CC2CN(C(=O)c3ccccc3-c3cccs3)CC2C1` (centres unmarked) [Example 65, 2-Methyl-3-{5-[(2-thiophen-2-ylphenyl)carbonyl]hexahydropyrrolo[3,4-c]pyrrol-2(1H)-yl}quinoxaline] was tested. Which Ki did it give?
Answer: 228 nM

Question: Which Ki does the source give for `Cc1nc2ccccc2nc1N1CC2CN(C(=O)c3ccccc3-c3ccccc3)CC2C1` (centres unmarked) [Example 66, 2-[5-(Biphenyl-2-ylcarbonyl)hexahydropyrrolo[3,4-c]pyrrol-2(1H)-yl]-3-methylquinoxaline] here?
Answer: 449 nM

Question: Which Ki does the source give for `Cc1cc(C)nc(N2CC3CN(C(=O)c4ccccc4-n4cccn4)CC3C2)n1` (centres unmarked) [Example 67, 2-(4,6-Dimethylpyrimidin-2-yl)-5-{[2-(1H-pyrazol-1-yl)phenyl]carbonyl}octahydro-pyrrolo[3,4-c]pyrrole] here?
Answer: 119 nM

Question: `COc1cc(OC)nc(N2CC3CN(C(=O)c4c(F)cccc4-c4ncccn4)CC3C2)n1` (centres unmarked) [Example 68, 2-(4,6-Dimethoxypyrimidin-2-yl)-5-[(2-fluoro-6-pyrimidin-2-ylphenyl)carbonyl]octahydropyrrolo[3,4-c]pyrrole] was tested. Which Ki did it give?
Answer: 13 nM

Question: With `Cc1cc(C)nc(N2CC3CN(C(=O)c4ccccc4-c4ccccn4)CC3C2)n1` (centres unmarked) [Example 69, 2-(4,6-Dimethylpyrimidin-2-yl)-5-[(2-pyridin-2-ylphenyl)carbonyl]octahydro-pyrrolo[3,4-c]pyrrole] as the compound, how does the Ki read?
Answer: 17 nM

Question: Which Ki does the source give for `COc1cc(OC)nc(N2CC3CN(C(=O)c4ccccc4-c4ccccn4)CC3C2)n1` (centres unmarked) [Example 70, 2-(4,6-Dimethoxypyrimidin-2-yl)-5-[(2-pyridin-2-ylphenyl)carbonyl]octahydro-pyrrolo[3,4-c]pyrrole] here?
Answer: 52 nM

Question: `COc1cc(OC)nc(N2CC3CN(C(=O)c4cc(F)ccc4-c4ncccn4)CC3C2)n1` (centres unmarked) [Example 71, 2-(4,6-Dimethoxypyrimidin-2-yl)-5-[(5-fluoro-2-pyrimidin-2-ylphenyl)carbonyl]octahydropyrrolo[3,4-c]pyrrole] was tested. Which Ki did it give?
Answer: 1000 nM

Question: Which Ki does the source give for `COc1cc(OC)nc(N2CC3CN(C(=O)c4cc(F)ccc4-n4nccn4)CC3C2)n1` (centres unmarked) [Example 72, 2-(4,6-Dimethoxypyrimidin-2-yl)-5-{[5-fluoro-2-(2H-1,2,3-triazol-2-yl)phenyl]carbonyl}octahydropyrrolo[3,4-c]pyrrole] here?
Answer: 318 nM

Question: With `Cc1cc(C)nc(N2CC3CN(C(=O)c4c(F)cccc4-c4ncccn4)CC3C2)n1` (centres unmarked) [Example 73, 2-(4,6-Dimethylpyrimidin-2-yl)-5-[(2-fluoro-6-pyrimidin-2-ylphenyl)carbonyl]octahydropyrrolo[3,4-c]pyrrole] as the compound, how does the Ki read?
Answer: 7 nM

Question: How did the Ki turn out when `Cc1cc(C)nc(N2CC3CN(C(=O)c4cc(F)ccc4-c4ncccn4)CC3C2)n1` (centres unmarked) [Example 74, 2-(4,6-Dimethylpyrimidin-2-yl)-5-[(5-fluoro-2-pyrimidin-2-ylphenyl)carbonyl]octahydropyrrolo[3,4-c]pyrrole] was run?
Answer: 14 nM

Question: For `CCc1ccccc1C(=O)N1CC2CN(c3nc(C)cc(C)n3)CC2C1` (centres unmarked) [Example 76, 2-(4,6-Dimethylpyrimidin-2-yl)-5-[(2-ethylphenyl)carbonyl]octahydropyrrolo[3,4-c]pyrrole], which Ki is on record?
Answer: 237 nM

Question: How did the Ki turn out when `CCOc1ccc2ccccc2c1C(=O)N1CC2CN(c3nc(C)cc(C)n3)CC2C1` (centres unmarked) [Example 77, 2-(4,6-Dimethylpyrimidin-2-yl)-5-[(2-ethoxynaphthalen-1-yl)carbonyl]octahydro-pyrrolo[3,4-c]pyrrole] was run?
Answer: 25 nM

Question: Which Ki does the source give for `COc1cc(OC)nc(N2CC3CN(C(=O)c4ccccc4-n4cccn4)CC3C2)n1` (centres unmarked) [Example 78, 2-(4,6-Dimethoxypyrimidin-2-yl)-5-{[2-(1H-pyrazol-1-yl)phenyl]carbonyl}octahydro-pyrrolo[3,4-c]pyrrole] here?
Answer: 550 nM

Question: Which Ki does the source give for `Cc1cc(C)nc(N2CC3CN(C(=O)c4ncoc4-c4ccccc4)CC3C2)n1` (centres unmarked) [Example 79, 2-(4,6-Dimethylpyrimidin-2-yl)-5-[(5-phenyl-1,3-oxazol-4-yl)carbonyl]octahydro-pyrrolo[3,4-c]pyrrole] here?
Answer: 480 nM

Question: For `Cc1cc(C)nc(N2CC3CN(C(=O)c4cnoc4-c4ccccc4)CC3C2)n1` (centres unmarked) [Example 80, 2-(4,6-Dimethylpyrimidin-2-yl)-5-[(5-phenylisoxazol-4-yl)carbonyl]octahydro-pyrrolo[3,4-c]pyrrole], which Ki is on record?
Answer: 314 nM
